From PMC10707934, “Design and Synthesis of Novel α-Methylchalcone Derivatives, Anti-Cervical Cancer Activity, and Reversal of Drug Resistance in HeLa/DDP Cells” (Molecules, 2023)

How the values were obtained:
[1] = system: HeLa cells; assay: MTT anti-proliferation assay, HeLa; format: cell-based, human; details: Homo sapiens, 48 h, mean ± SD
Method: All cell types, at a volume of 200 µL per well, were inoculated in 96-well plates at a density of 2.5 × 10^4 cells / mL and cultured for 24 h in an incubator with 5% CO2 at 37 °C. The old culture medium was replaced with 200 µL of fresh medium per well containing positive compounds, at concentrations of 1, 6.25, 12.5, 25, 50, and 100 μM. After 48 h of culture, 20 µL per well of 5 mg·mL^−1 MTT solution was added. After 4 h of culture, the old solution was discarded, and 150 µL per well of DMSO solution was added. Using an enzyme labeler (Thermo Fisher Scientific, Multiskan GO, Waltham, MA, USA), the plates were shaken for 10 min, OD values were determined at 490 nm, and the inhibition rate was calculated. Non-linear regression fitting of the cell growth rate was carried out using SPSS 23.0, and the IC50 of the compound was calculated. The inhibition rate was calculated using the formula: [(ODempty − ODtest)/(ODempty − ODnegative group)] × 100%, (ODempty blank group absorbance, ODtest absorbance of administration group, ODnegative group without cell culture medium). Each group contained six compound holes, and the experimental results averaged three trials. Complete medium containing only cells was used as the blank control; a complete medium without cells as was used as the negative control; and cisplatin, paclitaxel, and adriamycin were used as the positive controls. The concentration gradient was the same as that used for compounds 3a–3p. […]

[2] = system: SiHa cells; assay: MTT anti-proliferation assay, SiHa; format: cell-based, human; details: Homo sapiens, 48 h, mean ± SD
Method: (§1) All cell types, at a volume of 200 µL per well, were inoculated in 96-well plates at a density of 2.5 × 10^4 cells / mL and cultured for 24 h in an incubator with 5% CO2 at 37 °C. The old culture medium was replaced with 200 µL of fresh medium per well containing positive compounds, at concentrations of 1, 6.25, 12.5, 25, 50, and 100 μM. After 48 h of culture, 20 µL per well of 5 mg·mL^−1 MTT solution was added. After 4 h of culture, the old solution was discarded, and 150 µL per well of DMSO solution was added. Using an enzyme labeler (Thermo Fisher Scientific, Multiskan GO, Waltham, MA, USA), the plates were shaken for 10 min, OD values were determined at 490 nm, and the inhibition rate was calculated. Non-linear regression fitting of the cell growth rate was carried out using SPSS 23.0, and the IC50 of the compound was calculated. The inhibition rate was calculated using the formula: [(ODempty − ODtest)/(ODempty − ODnegative group)] × 100%, (ODempty blank group absorbance, ODtest absorbance of administration group, ODnegative group without cell culture medium). Each group contained six compound holes, and the experimental results averaged three trials. Complete medium containing only cells was used as the blank control; a complete medium without cells as was used as the negative control; and cisplatin, paclitaxel, and adriamycin were used as the positive controls. The concentration gradient was the same as that used for compounds 3a–3p.

[3] = system: C33A cells; assay: MTT anti-proliferation assay, C33A; format: cell-based, human; details: Homo sapiens, C-33-A, 48 h, mean ± SD
Method: as §1

[4] = system: human cervical epithelial cells H8; assay: MTT toxicity assay, normal cervical epithelial cells H8; format: cell-based; details: Homo sapiens, Epithelial cell, 48 h, mean ± SD
Method: as §1

[5] = system: HeLa/DDP cells; assay: MTT anti-cisplatin-resistant cervical cancer activity, HeLa/DDP; format: cell-based, human; details: 48 h; for resistance index (RI): HeLa/DDP versus parental HeLa; for IC50: Homo sapiens, HeLa/DDP, MTT, mean ± SD
Method: as §1
To mitigate the detrimental consequences arising from the fixation of resistance reversal agents, concentrations that yielded a tumor cell proliferation rate reduction of less than 10% were selected. Consequently, the inhibitory efficacy of compound 3k against HeLa/DDP cells was assessed in conjunction with cisplatin at concentrations of 0.25, 0.5, and 1 μM. The experimental procedure employed was akin to that elucidated in Section 3.3.2. The impact of verapamil (6 μM) and 3k (0.25, 0.5, and 1 μM) on P-gp expression was ascertained via Western blot experiments, employing the same methodology delineated in Section 3.3.4.

[6] = system: HeLa/DDP cells; assay: Annexin V-FITC/PI pro-apoptosis assay, HeLa/DDP; format: cell-based, human; details: 24 h, 20 μM
Method: Cell fluid (2 mL per well) at a concentration of 1.5 × 10^5 cells / mL was added to a 6-well plate and cultured in a cell incubator with 5% CO2 at 37 °C for 24 h. The old solution was discarded; 2 mL of the medium containing compound 3k was added to each well at a concentration gradient of 2.5, 5, and 10 μM; and the experiment was repeated three times at each concentration. Complete medium containing only cells was used as a blank control group, and 20 μM of cisplatin injection and chalcone was used as a positive control. Cells were harvested following a 24 h incubation period, adhering to the guidelines provided with the BD kit (BD Biosciences Pharmingen, 556547, 10975 Torreyana Road, San Diego, CA, USA). Subsequently, the cells were subjected to staining in a light-restricted environment at ambient temperature for a duration of 15 min, followed by filtration and analysis via flow cytometry.
The pro-apoptotic experiments of compound 3k, cisplatin, and chalcone on HeLa/DDP were performed in the same way as in Section 3.3.3. Western Blotting Analysis in the same way as in Section 3.3.4.

[7] = system: HeLa cells; assay: Transwell migration assay, HeLa; format: cell-based, human; details: 24 h, 20 μM, control 1176
Method: (§2) HeLa (5 × 10^4 cells) was suspended in 200 μL of FBS-free medium. The top chamber contained the vehicle and various concentrations of compound 3k (2.5, 5, and 10 μM), cisplatin (20 μM) and chalcone (20 μM). The lower chamber was filled with 600 μL of medium containing 10% FBS. After incubating at 37 °C for 24 h, the cells on the top side of the Transwell membrane were removed with a cotton tip. Cells were fixed and stained with 4% paraformaldehyde (LEAGENE BIOTECHNOLOGY, Cat:DF0135, Lot:0823A23, Zhongguancun, Haidian District, Beijing, China) and 0.1% crystal violet solutions (Leagene Biotechnology, Cat:DZ0055, Lot:0508A23, Zhongguancun, Haidian District, Beijing, China) for 30 min to fix cells trapped on the perforated side of the membrane.

[8] = system: HeLa cells; assay: Transwell Matrigel invasion assay, HeLa; format: cell-based, human; details: 24 h, 20 μM
Method: (§3) The Transwell ([…], Corning Incorporated, New York, NY, USA) was precoated using 50 μL Matrigel for 5 h at 37 °C to achieve solidification. HeLa cells was collected and suspended in a serum-free medium containing varying concentrations (0, 2.5, 5, and 10 μM) of compound 3k, along with 20 μM cisplatin and chalcone. These cell suspensions were then added to the upper wells of a permeabilization chamber at a density of 5 × 10^5 cells/mL. In the lower wells, 600 μL of DMEM containing 10% FBS was added, which had been prepared using 50 μL of Matrigel (diluted 1:8 with serum-free medium from Corning/BD Biosciences). After 24 h of incubation at 37 °C, the invasion cells were fixed using 4% paraformaldehyde and stained using 0.1% crystal violet for 30 min. Then, the chambers were washed using PBS and left to dry. Images were photographed using an inverted fluorescence microscope (Leica Instruments Co., Ltd., Microsystems CMS GmbH, Weizler, Hesse, Germany) and counted using Image J software (V1.8.0.112) for three independent fields randomly.

[9] = system: HeLa/DDP cells; assay: Transwell migration assay, HeLa/DDP; format: cell-based, human; details: 24 h, 20 μM, control 497
Method: as §2
(§4) The experimental methods for the effects of compound 3k, cisplatin, and chalcone on HeLa/DDP cell invasion and migration were the same as in Section 3.3.6.

[10] = system: HeLa/DDP cells; assay: Transwell Matrigel invasion assay, HeLa/DDP; format: cell-based, human; details: 24 h, 20 μM, control 399
Method: as §3, §4

[11] = system: α-tubulin, β-tubulin in HeLa cells; assay: Immunofluorescence assay of microtubules, HeLa; format: cell-based, human; details: 24 h, 3k 1, 2, and 4 μM, colchicine and paclitaxel 2.0 μM
Method: (§5) The cells were then fixed by adding 400 μL of 4% paraformaldehyde to each well and incubating for 30 min. 0.1% Triton was added at a volume of 400 μL per well and allowed to incubate for 10 min. Following this, goat serum (10%) was added at 400 μL per well and incubated for 40 min. Primary antibodies (α-tubulin, β-tubulin) were then incubated overnight at a temperature of 4 °C. Subsequently, secondary antibodies (α-mouse, β-rabbit) were incubated for 1.5 h. DAPI staining was performed at 400 μL per well for 5 min, followed by a wash with PBS. Cell climbing tablets were removed and inverted onto slides with sealer. Photographs were captured using a fluorescent inverted microscope.

[12] = system: α-tubulin, β-tubulin in HeLa/DDP cells; assay: Immunofluorescence assay of microtubules, HeLa/DDP; format: cell-based, human; details: 24 h, 3k 1, 2, and 4 μM, paclitaxel 2.0 μM
Method: as §5

[13] = system: α-/β-tubulins in HeLa cells; assay: Western blot of polymerized and dissociated α-/β-tubulins, HeLa; format: cell-based, human; details: 24 h, versus control; for expression of dissociated state α and β microtubule proteins: 3k 4 μM, colchicine 2 μM, paclitaxel 2.0 μM; for expression of α and β microtubule proteins in the polymerized state: 3k 2 and 4 μM, colchicine and paclitaxel 2.0 μM
Method: (§6) HeLa cells were cultured in 60 mm Petri dishes at a density of 1.0 × 10^6 cells per dish and treated with 0.1% DMSO (vehicle), positive control chalcone (20 μM), and different concentrations of compound 3k (2.5, 5, and 10 μM), respectively. Following a 24 and 48 h incubation period, the cells were harvested via centrifugation and subsequently washed twice with PBS that had been chilled to 0 °C. Next, the cells were homogenized using RIPA lysis buffer (Solarbio, Beijing, China) and supplemented with 1% PMSF (MP Biomedicals, 0754-25G, CAS:329-98-6, Santa Ana, CA, USA) and 1% mixed phosphatase inhibitor (Solarbio, Beijing, China). The resulting lysates were then incubated on ice for 30 min, intermittently vortexed every 5 min, and subsequently centrifuged at 12,000 rpm for 20 min to collect the supernatants.
(§7) Subsequently, the protein concentrations were determined utilizing a BCA Protein Assay Kit (Solarbio, China). An equivalent quantity of the proteins (12 μg) was fractionated via 8–12% sodium dodecyl sulfate–polyacrylamide gel electrophoresis (SDS-PAGE) and transferred onto nitrocellulose membranes (Amersham Biosciences, Amersham, UK). Following this, the membranes were obstructed with 5% nonfat dried milk in TBS containing 1% Tween-20 for a duration of 2 h at ambient temperature and were subjected to overnight incubation with specific primary antibodies (CST, Boston, MA, USA) at 4 °C. Following three washes in TBST, the membranes were subjected to incubation with the suitable HRP-conjugated secondary antibodies at ambient temperature for a duration of 2 h. The blots were subsequently visualized using enhanced chemiluminescence (Biosharp, Shanghai, China) and detected utilizing a PE 0723 imager (ProteinSimple, Silicon Valley, CA, USA). Each experiment was conducted in triplicate at minimum and analyzed employing Image J software (V1.8.0.112). β-actin(ab198991) rabbit mAb, goat anti-rabbit IgG (H + L) HRP—#S0001 (Affinity). Bax (ab289364), Bcl-2 (ab218123), MDR1/ABCB1 (E1Y7B) rabbit mAb #13342 (CST).
(§8) Polymerized and free microtubule proteins were extracted using the methods described in references, respectively. Following drug intervention, the cells were subjected to two washes with preheated microtubule protein buffer MTSB at 37 °C. Subsequently, 70 μL of MTSB was added, and the cells were lysed for 10 min at 37 °C in a constant temperature chamber shielded from light. The cells were then scraped with a spatula and centrifuged at 14,000 r/min for 10 min at room temperature. The resulting supernatant, which represented the free state microtubule protein suspension, was subsequently removed. The remaining precipitate was treated with RIPA lysis solution, followed by lysis on ice for a duration of 30 min. Subsequently, centrifugation was performed at a temperature of 4 °C and a speed of 12,000 revolutions per minute for a duration of 20 min. The resulting supernatant was collected as a suspension of polymerized microtubule protein. The Western blotting procedure was the same as in Section 3.3.4. α-Tubulin (DM1A) Mouse mAb#3873 (CST), β-Tubulin (D2N5G) Rabbit mAb #15115 (CST), CoraLite488-conjugated Goat Anti-Mouse lgG(H+L) (Proteintech); CoraLite488-conjugated Goat Anti-Rabbit lgG(H+L) (Proteintech); β-actin(ab198991) rabbit mAb, Goat Anti-Mouse IgG H&L (HRP) (ab6789); Goat anti-Rabbit IgG (H+L) HRP—#S0001 (Affinity).

[14] = system: α-/β-tubulins in HeLa/DDP cells; assay: Western blot of polymerized and dissociated α-/β-tubulins, HeLa/DDP; format: cell-based, human; details: 24 h, versus control; for expression of dissociated state α and β microtubule proteins: 3k 4 μM, colchicine and paclitaxel 2.0 μM; for expression of polymerized state α and β microtubule proteins: positive drugs 2.0 μM
Method: as §6, §7, §8

Compound	IC50 [1] [µM]	IC50 [2] [µM]	IC50 [3] [µM]	IC50 [4] [µM]	resistance index (RI) [5]	IC50 [5] [µM]	pro-apoptotic rate [6] [%]	number of migrated cells [7]	number of cells undergoing invasion [8]	number of migrated cells [9]	number of invasion cells [10]	microtubule immunofluorescence (α green, β red) [11]	microtubule immunofluorescence (α green, β red) [12]	expression of dissociated state α and β microtubule proteins [13]	expression of α and β microtubule proteins in the polymerized state [13]	expression of dissociated state α and β microtubule proteins [14]	expression of polymerized state α and β microtubule proteins [14]
O=C(/C=C/c1ccccc1)c1ccccc1 [Chalcone, (E)-chalcone]	67 ± 4.56	62 ± 1.84	37.5 ± 1.5	78.5 ± 7.78	1.31	88 ± 7.27	13.8	689	422	319	347						
CC(=O)O[C@H]1C(=O)[C@@]2(C)[C@H]([C@H](OC(=O)c3ccccc3)[C@]3(O)C[C@H](OC(=O)[C@H](O)[C@@H](NC(=O)c4ccccc4)c4ccccc4)C(C)=C1C3(C)C)[C@]1(OC(C)=O)CO[C@@H]1C[C@@H]2O [Paclitaxel, paclitaxel]	23 ± 1.33				5.66	130 ± 5.84						fluorescence intensity of microtubules surrounding the cells decreased or vanished	no significant alteration in the fluorescence intensity of the microtubules surrounding the cells	significantly decreased	significantly enhanced	minimal impact	did not yield a significant impact
COc1cc2c(c(OC)c1OC)-c1ccc(OC)c(=O)cc1[C@@H](NC(C)=O)CC2 [colchicine]														significantly increased	decrease	increase	significant decrease
